# Data reported in paper PMC4854315, “Discovery of a novel allosteric inhibitor-binding site in ERK5: comparison with the canonical kinase hinge ATP-binding site” (Acta Crystallographica. Section D, Structural Biology, 2016).
# Tests used:
# Assay in all cases: Z'-LYTE kinase panel
# Type in all cases: biochemical
# [1] = molecular target: T1, GRK4 (Homo sapiens, UniProt P32298)
# T1 construct: purchased ThermoFisher (SelectScreen, Z'-LYTE)
# In short: (§1)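 Readout is percentage inhibition, obtained from the standard Z′-LYTE protocol with test compound present at 10 µM; screened within a panel of 225 kinases.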
# [2] = molecular target: T2, MAPK12 (p38 gamma) (Homo sapiens, UniProt P53778)
# T2 construct: purchased ThermoFisher (SelectScreen, Z'-LYTE)
# T2 sequence (P53778 1-367): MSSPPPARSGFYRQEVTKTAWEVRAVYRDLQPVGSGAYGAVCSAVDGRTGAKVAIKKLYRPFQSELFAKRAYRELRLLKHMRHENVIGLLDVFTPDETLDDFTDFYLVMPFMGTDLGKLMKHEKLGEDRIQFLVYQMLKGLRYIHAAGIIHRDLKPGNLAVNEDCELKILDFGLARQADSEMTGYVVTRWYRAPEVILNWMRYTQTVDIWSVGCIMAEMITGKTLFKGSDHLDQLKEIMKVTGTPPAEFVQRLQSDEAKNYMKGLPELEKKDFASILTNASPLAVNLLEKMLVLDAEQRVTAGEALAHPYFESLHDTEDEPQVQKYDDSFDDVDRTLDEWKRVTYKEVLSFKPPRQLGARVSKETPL
# In short: as §1
# [3] = molecular target: T3, SRPK2 (Homo sapiens, UniProt P78362)
# T3 construct: purchased ThermoFisher (SelectScreen, Z'-LYTE)
# In short: as §1
# [4] = molecular target: T4, MAPK9 (JNK2) (Homo sapiens, UniProt P45984); details: 10 µM compound; ATP 100
# T4 construct: purchased ThermoFisher (SelectScreen, Z'-LYTE)
# In short: as §1
# [5] = molecular target: T5, MAP3K8 (COT) (Homo sapiens, UniProt P41279); details: 10 µM compound; ATP 100
# T5 construct: purchased ThermoFisher (SelectScreen, Z'-LYTE)
# In short: as §1
# [6] = molecular target: T6, EEF2K (Homo sapiens, UniProt O00418)
# T6 construct: purchased ThermoFisher (SelectScreen, Z'-LYTE)
# In short: as §1
# [7] = molecular target: T7, CSK (Homo sapiens, UniProt P41240)
# T7 construct: purchased ThermoFisher (SelectScreen, Z'-LYTE)
# In short: as §1
# [8] = molecular target: T8, CSNK2A1 (CK2 alpha 1) (Homo sapiens, UniProt P68400)
# T8 construct: purchased ThermoFisher (SelectScreen, Z'-LYTE)
# In short: as §1
# [9] = molecular target: T9, AKT3 (PKB gamma) (Homo sapiens, UniProt Q9Y243)
# T9 construct: purchased ThermoFisher (SelectScreen, Z'-LYTE)
# In short: as §1
# [10] = molecular target: T10, INSRR (IRR) (Homo sapiens, UniProt P14616)
# T10 construct: purchased ThermoFisher (SelectScreen, Z'-LYTE)
# In short: as §1
# [11] = molecular target: T11, MAPK1 (ERK2) (Homo sapiens, UniProt P28482)
# T11 construct: purchased ThermoFisher (SelectScreen, Z'-LYTE)
# In short: as §1
# [12] = molecular target: T12, DYRK3 (Homo sapiens, UniProt O43781)
# T12 construct: purchased ThermoFisher (SelectScreen, Z'-LYTE)
# T12 sequence (O43781 1-588): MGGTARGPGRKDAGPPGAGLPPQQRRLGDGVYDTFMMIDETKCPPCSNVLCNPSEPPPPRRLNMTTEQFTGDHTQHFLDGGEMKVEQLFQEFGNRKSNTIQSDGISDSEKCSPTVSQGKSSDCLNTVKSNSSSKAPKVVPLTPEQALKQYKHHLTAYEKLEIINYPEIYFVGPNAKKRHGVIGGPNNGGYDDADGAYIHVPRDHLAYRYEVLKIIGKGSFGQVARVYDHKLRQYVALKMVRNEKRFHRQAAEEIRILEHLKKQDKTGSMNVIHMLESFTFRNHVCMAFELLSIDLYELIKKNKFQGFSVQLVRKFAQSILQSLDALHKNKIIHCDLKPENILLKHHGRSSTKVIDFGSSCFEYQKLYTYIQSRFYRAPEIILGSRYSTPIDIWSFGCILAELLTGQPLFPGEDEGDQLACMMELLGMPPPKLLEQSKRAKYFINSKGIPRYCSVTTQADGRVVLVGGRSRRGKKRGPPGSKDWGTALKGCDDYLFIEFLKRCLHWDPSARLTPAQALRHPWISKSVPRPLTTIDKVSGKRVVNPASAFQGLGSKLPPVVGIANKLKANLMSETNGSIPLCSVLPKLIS
# In short: as §1
# [13] = molecular target: T13, PDGFRA (PDGFR alpha) (Homo sapiens, UniProt P16234)
# T13 construct: purchased ThermoFisher (SelectScreen, Z'-LYTE)
# In short: as §1
# [14] = molecular target: T14, PKN1 (PRK1) (Homo sapiens, UniProt Q16512)
# T14 construct: purchased ThermoFisher (SelectScreen, Z'-LYTE)
# In short: as §1
# [15] = molecular target: T15, INSR (Homo sapiens, UniProt P06213)
# T15 construct: purchased ThermoFisher (SelectScreen, Z'-LYTE)
# In short: as §1
# [16] = molecular target: T16, BLK (Homo sapiens, UniProt P51451)
# T16 construct: purchased ThermoFisher (SelectScreen, Z'-LYTE)
# In short: as §1
# [17] = molecular target: T17, IGF1R (Homo sapiens, UniProt P08069)
# T17 construct: purchased ThermoFisher (SelectScreen, Z'-LYTE)
# In short: as §1
# T15 sequence (P06213 28-1382): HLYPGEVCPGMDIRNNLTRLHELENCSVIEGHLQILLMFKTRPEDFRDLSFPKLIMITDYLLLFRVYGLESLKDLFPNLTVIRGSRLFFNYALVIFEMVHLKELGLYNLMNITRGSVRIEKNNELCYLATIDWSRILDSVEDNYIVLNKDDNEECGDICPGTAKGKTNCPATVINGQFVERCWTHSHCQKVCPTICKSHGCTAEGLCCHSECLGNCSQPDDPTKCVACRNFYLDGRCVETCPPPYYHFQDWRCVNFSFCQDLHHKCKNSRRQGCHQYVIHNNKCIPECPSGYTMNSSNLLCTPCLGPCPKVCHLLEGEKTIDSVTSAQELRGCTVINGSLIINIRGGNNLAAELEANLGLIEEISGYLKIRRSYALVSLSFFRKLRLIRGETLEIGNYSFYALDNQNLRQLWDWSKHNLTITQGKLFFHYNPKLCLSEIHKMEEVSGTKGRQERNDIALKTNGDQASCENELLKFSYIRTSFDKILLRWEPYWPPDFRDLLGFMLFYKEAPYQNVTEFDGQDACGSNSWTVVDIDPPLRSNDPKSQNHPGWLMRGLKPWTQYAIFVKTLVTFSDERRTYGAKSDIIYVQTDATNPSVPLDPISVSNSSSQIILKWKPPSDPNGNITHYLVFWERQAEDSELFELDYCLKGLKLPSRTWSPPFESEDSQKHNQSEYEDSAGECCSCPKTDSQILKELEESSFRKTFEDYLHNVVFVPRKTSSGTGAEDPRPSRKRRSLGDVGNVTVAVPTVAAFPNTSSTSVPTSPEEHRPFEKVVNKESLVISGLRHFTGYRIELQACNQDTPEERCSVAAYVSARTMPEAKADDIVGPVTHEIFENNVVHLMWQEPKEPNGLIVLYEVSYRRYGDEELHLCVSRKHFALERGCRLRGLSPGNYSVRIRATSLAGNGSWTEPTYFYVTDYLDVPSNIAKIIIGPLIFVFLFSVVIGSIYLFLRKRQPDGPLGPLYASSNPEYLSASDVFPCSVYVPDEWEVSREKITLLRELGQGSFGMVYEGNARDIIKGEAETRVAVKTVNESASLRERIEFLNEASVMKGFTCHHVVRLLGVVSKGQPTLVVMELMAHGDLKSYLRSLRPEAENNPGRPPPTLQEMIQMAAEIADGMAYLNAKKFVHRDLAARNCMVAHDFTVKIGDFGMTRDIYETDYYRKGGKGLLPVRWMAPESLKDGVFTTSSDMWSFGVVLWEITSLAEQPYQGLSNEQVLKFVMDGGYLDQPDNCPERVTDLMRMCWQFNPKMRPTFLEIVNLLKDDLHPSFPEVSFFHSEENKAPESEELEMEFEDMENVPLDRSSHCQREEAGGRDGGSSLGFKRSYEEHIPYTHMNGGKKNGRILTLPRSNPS
# T10 sequence (P14616 27-1297): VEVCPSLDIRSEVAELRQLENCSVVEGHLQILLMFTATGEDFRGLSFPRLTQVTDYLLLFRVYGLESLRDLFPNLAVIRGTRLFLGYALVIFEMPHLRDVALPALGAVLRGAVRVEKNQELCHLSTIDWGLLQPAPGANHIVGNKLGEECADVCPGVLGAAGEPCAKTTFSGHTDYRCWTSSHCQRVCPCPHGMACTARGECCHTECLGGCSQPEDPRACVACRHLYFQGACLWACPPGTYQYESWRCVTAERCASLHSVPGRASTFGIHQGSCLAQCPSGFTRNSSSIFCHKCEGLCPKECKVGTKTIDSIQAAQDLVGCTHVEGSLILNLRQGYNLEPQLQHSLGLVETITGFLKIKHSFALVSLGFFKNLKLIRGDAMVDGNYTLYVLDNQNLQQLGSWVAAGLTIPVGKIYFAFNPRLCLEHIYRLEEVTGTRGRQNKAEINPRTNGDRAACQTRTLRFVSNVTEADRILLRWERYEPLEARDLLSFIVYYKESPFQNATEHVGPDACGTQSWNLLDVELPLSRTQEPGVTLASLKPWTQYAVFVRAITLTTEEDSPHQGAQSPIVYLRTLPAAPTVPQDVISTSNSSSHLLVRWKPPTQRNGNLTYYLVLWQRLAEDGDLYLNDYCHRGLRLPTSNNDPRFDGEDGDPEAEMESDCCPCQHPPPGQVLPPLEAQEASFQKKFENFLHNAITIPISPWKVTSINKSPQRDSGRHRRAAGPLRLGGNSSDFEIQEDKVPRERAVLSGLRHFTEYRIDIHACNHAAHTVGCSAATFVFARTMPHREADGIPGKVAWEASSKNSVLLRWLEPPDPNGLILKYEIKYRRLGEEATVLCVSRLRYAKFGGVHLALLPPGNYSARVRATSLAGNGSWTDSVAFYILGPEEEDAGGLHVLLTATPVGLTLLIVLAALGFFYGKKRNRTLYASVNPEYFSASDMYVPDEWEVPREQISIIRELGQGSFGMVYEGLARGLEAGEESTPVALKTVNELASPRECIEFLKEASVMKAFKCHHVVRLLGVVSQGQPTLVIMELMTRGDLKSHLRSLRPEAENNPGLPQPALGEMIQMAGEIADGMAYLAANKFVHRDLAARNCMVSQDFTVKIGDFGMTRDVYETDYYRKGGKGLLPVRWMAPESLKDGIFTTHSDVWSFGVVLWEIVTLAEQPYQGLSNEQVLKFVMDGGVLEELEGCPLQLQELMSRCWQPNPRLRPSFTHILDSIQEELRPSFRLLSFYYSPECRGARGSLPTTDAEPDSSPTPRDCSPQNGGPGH
# T11 sequence (P28482 whole entry): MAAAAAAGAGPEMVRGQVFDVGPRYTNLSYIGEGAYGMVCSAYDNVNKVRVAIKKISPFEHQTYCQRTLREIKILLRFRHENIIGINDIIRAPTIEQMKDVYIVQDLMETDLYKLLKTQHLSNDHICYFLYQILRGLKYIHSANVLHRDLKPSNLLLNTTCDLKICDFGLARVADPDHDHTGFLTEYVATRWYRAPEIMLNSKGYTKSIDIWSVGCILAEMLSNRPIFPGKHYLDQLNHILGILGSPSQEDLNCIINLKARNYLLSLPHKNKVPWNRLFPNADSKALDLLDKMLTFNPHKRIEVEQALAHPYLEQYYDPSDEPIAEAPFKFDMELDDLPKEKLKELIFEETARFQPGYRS
# T8 sequence (P68400 whole entry): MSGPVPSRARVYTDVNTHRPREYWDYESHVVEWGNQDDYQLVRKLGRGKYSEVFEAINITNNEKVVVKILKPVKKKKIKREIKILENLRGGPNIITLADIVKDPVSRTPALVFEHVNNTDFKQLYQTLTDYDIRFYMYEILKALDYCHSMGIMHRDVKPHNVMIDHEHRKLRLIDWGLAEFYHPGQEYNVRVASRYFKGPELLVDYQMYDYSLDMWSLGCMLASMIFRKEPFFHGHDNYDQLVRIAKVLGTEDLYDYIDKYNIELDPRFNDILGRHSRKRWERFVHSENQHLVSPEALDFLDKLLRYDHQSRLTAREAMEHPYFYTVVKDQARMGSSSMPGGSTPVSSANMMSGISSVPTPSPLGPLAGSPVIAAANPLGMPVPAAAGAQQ
# T9 sequence (Q9Y243 whole entry): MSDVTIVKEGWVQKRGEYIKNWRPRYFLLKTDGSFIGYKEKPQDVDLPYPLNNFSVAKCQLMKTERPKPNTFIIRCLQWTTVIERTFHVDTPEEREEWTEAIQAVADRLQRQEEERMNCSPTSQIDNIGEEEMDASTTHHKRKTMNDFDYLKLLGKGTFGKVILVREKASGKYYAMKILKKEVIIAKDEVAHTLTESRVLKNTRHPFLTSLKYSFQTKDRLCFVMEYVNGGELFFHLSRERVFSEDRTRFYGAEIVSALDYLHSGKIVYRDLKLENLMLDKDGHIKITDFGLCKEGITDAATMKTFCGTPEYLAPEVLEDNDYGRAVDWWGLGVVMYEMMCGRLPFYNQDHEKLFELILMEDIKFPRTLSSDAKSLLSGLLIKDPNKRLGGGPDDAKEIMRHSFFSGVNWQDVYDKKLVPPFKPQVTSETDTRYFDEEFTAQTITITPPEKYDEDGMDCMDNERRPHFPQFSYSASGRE
# T5 sequence (P41279 whole entry): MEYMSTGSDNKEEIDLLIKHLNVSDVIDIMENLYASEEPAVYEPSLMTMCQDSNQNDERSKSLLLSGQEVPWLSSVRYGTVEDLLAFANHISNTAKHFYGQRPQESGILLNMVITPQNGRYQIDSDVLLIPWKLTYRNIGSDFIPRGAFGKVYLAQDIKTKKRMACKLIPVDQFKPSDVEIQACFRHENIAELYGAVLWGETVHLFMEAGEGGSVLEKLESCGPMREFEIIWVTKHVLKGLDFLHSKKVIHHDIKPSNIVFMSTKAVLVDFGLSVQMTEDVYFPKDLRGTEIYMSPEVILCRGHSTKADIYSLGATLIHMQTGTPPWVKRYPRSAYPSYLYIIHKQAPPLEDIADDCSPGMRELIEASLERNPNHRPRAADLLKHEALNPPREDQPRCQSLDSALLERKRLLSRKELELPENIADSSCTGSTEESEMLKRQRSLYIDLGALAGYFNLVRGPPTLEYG
# T16 sequence (P51451 whole entry): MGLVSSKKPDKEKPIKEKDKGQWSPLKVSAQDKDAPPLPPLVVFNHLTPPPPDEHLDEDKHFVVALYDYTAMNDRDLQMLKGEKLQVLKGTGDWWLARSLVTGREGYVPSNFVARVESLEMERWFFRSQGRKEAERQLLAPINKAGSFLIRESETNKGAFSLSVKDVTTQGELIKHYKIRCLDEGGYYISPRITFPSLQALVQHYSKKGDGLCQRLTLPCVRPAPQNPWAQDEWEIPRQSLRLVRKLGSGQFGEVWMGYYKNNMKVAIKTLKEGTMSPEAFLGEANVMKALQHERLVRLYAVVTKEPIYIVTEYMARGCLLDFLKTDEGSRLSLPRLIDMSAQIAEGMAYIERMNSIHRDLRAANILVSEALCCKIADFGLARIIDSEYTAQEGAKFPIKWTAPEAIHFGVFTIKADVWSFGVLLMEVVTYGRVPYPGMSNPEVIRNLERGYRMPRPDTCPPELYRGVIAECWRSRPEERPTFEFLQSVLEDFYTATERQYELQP
Molecule,inhibition at 10 µM [1],inhibition at 10 µM [2],inhibition at 10 µM [3],inhibition at 10 µM [4],inhibition at 10 µM [5],inhibition at 10 µM [6],inhibition at 10 µM [7],inhibition at 10 µM [8],inhibition at 10 µM [9],inhibition at 10 µM [10],inhibition at 10 µM [11],inhibition at 10 µM [12],inhibition at 10 µM [13],inhibition at 10 µM [14],inhibition at 10 µM [15],inhibition at 10 µM [16],inhibition at 10 µM [17],other results
Cc1ncc(-c2nc(Nc3ccc(C(=O)NCCN4CCCCC4)cc3)ncc2F)n1C(C)C [Compound 3],41%,46%,25%,103%,89%,1.51%,29%,40%,43%,105%,39%,93%,62%,62%,69%,65%,67%,
Cc1cc(Nc2nc(N)nn2C(=O)NC(C)C)ccc1Cl [Compound 5],7%,1.08%,-5%,4.72%,-2.72%,-5.55%,16%,8%,2%,5.63%,6%,0.141%,22%,-3.54%,5.44%,22%,-0.717%,
"XMD8-92 [Compound 2, reference compound]",,,,,,,,,,,,,,,,,,"GRK4 % Inhibition ([1]; 10 µM compound, ATP Km app): 93%; MAPK12 (p38 gamma) % Inhibition ([2]; 10 µM compound, ATP Km app): 3.54%; SRPK2 % Inhibition ([3]; 10 µM compound, ATP Km app): -19%; MAPK9 (JNK2) % Inhibition [4]: 5.42%; MAP3K8 (COT) % Inhibition [5]: 3.36%; EEF2K % Inhibition ([6]; 10 µM compound, ATP Km app): -6%; CSK % Inhibition ([7]; 10 µM compound, ATP Km app): 11%; CSNK2A1 (CK2 alpha 1) % Inhibition ([8]; 10 µM compound, ATP Km app): 8%; AKT3 (PKB gamma) % Inhibition ([9]; 10 µM compound, ATP Km app): 72%; INSRR (IRR) % Inhibition ([10]; 10 µM compound, ATP Km app): 21%; MAPK1 (ERK2) % Inhibition ([11]; 10 µM compound, ATP Km app): 9%; DYRK3 % Inhibition ([12]; 10 µM compound, ATP Km app): 31%; PDGFRA (PDGFR alpha) % Inhibition ([13]; 10 µM compound, ATP Km app): 8%; PKN1 (PRK1) % Inhibition ([14]; 10 µM compound, ATP Km app): 1.26%; INSR % Inhibition ([15]; 10 µM compound, ATP Km app): 4%; BLK % Inhibition ([16]; 10 µM compound, ATP Km app): 38%; IGF1R % Inhibition ([17]; 10 µM compound, ATP Km app): -1.87%"
